# Patent publication US20240181000A1, “LGG-DERIVED PEPTIDES AND METHODS OF USE THEREOF” (Ohio State Innovation Foundation, priority 2021, published 2024)
# No end group written: not given here.
# Columns and labels:
# ST = type: in vivo, chickens; settings: for Reduction of percent of birds positive for ST in the liver: 50 mg/kg twice daily
# Experimental: Efficacy of peptides in chickens: To assess the efficacy of peptides against ST in chickens, one-day-old specific pathogen free (SPF) layer chickens from a Salmonella free flock at The Ohio State University were obtained and provided with feed and water ad libitum. Chickens (n=10/group) were treated with P1, P2, or P4 at 50 mg/kg body weight twice-daily doses. Peptides were dissolved in water to reach final concentration of 50 mg/kg and orally administered from day 1 to day 7. Early intestinal colonization is important for poultry health and thus is why peptide treatment was begun at day 1. Birds were challenged with 10^4 CFU of nalidixic acid resistant ST on day 3. At day 10 [7 days post infection (dpi)] chickens were euthanized, and the cecum, liver, and spleen were collected to determine the peptide's ability to reduce ST infection. The cecum was suspended in PBS, homogenized, ten-fold serially diluted, and plated on XLT4 agar plates supplemented with 50 μg/ml nalidixic acid and incubated for 24 h at 37° C. The liver and spleen were individually suspended in PBS and the undiluted homogenized suspension was plated directly and incubated for 24 h at 37° C. One milliliter of the undiluted homogenized liver and spleen was enriched in 9 ml of tetrathionate broth (TTB) for 24 h at 37° C. After incubation they were plated as described above to enumerate ST in each tissue. The body weights of chickens were measured on the day of necropsy (day 10). An untreated positive control group (PC: infected but untreated) and a negative control group (NC: non infected and non-treated) were included in the study. A Mann-Whitney test was used to determine statistical significance (P<0.05) of treatment on ST load in cecum and on body weight.
# [1] = system: Salmonella enterica subsp. enterica serovar Typhimurium LT2 (ST); test: Anti-Salmonella growth inhibition and MIC; type: cell-based; settings: No treatment
# Experimental: Primary screening for anti-Salmonella activity of peptides: The inhibitory effect of the peptides was accessed as described previously. ST was grown overnight and adjusted to 5×10^5 CFU/mL; 100 microliters of this measured concentration was placed into the wells of a 96 well plate. Peptides 1-6 were added to the well at 12 mM concentration and plate was incubated in a TECAN Sunrise™ absorbance microplate reader at 37° C. with kinetic absorbance measurements taken every 30 minutes for 12 h. The growth inhibitory activity was calculated with the formula (OD600 DMSO treated well-OD600 peptide treated well)/OD600 DMSO treated well×100%. DMSO treated, Salmonella challenged wells and sterile media with no Salmonella challenge were used as controls. This experiment was done twice to ensure the accuracy and reproducibility of the results.
# MIC was determined by selecting peptide concentration at which there is no increased growth (no increase in OD), given indication of no ST growth. An independent repeat experiment was conducted.
# Heat and protease tolerance of peptides: P1, P2, and P4 were heated for 6 minutes at 86° C. or treated with protease proteinase K, 200 μg/mL at 50° C. for 30 minutes. After which, the treated and/or heated peptides at their respective MICs were evaluated in the inhibition assay with Salmonella. The protocol from above was repeated in the Tecan with the same controls. […]
# commensal bacteria = test: Peptide activity against commensal bacteria; type: cell-based; settings: at MICs
# Experimental: Peptide activity against commensal bacteria: Peptides 1, 2, and 4 were used to assess if they would inhibit commensal microbes. The commensal bacteria used along with their culture requirements are described in Table 25. Peptides at their MICs were added to 100 μL of known concentration of commensal bacteria and incubated under their required conditions. OD600 of cultures was measured to assess the effect of peptides on bacterial growth.
# Biofilm embedded SE = test: MBEC Assay; type: cell-based, Salmonella enterica; settings: at MICs; untreated 6.77 ± 0.02
# Experimental: (§1) Peptides effect against biofilm embedded Salmonella: To analyze the ability of the peptides (P1, P2, and P4) to retain their inhibitory characteristics against biofilm protected Salmonella, Innovotech's MBEC Assay® (Innovotech Inc., AB, Canada) was conducted as previously detailed. Initially, 150 μL of 5×10^7 CFU/mL adjusted ST or SE suspension in LB media was aliquoted into the wells of MBEC inoculator plates containing polystyrene pegs and incubated for 36 h on a rocker platform at 37° C. to allow the biofilm formation. After biofilm formation, the pegs were washed to remove loosely adherent planktonic bacteria and transferred to a new 96-well plate containing peptides at MICs, with relevant controls, in 200 μL 25% LB media. The diluted LB media was used because it allows for slow bacterial growth to promote biofilm formation due to limited nutrients. The plate was incubated for 18 h at 37° C. with rotation at 150 rpm. Sterile media and DMSO were used as controls. Following incubation, the MICs of peptides in challenge plate were recorded. The pegs were transferred to new 96-well plate containing PBS and sonicated for 30 minutes to disrupt the biofilm. The sonicated suspensions were then ten-fold serially diluted and plated on LB agar plates to enumerate the biofilm protected bacteria and determine the minimum biofilm eradication concentration (MBEC) of peptides. Three independent experiments were conducted to ensure accuracy.
# Biofilm embedded ST = test: MBEC Assay; type: cell-based, Salmonella enterica; settings: at MICs; untreated 6.46 ± 0.09
# Experimental: as §1
substance,measurement,setting,value
"MLNERVK [Peptide P4, MLNERVK]",Reduction of percent of birds positive for ST in the liver,ST,30%
same,MIC against ST,[1],18 mM
same,Growth of Bacteroides thetaiotaomicron,commensal bacteria,no inhibition
same,Growth of E. coli Nissle 1917 and E. coli G58-1,commensal bacteria,inhibited
same,Growth of Gram-positive commensal bacteria,commensal bacteria,No growth inhibition
same,Biofilm embedded SE,Biofilm embedded SE,0.00 ± 0.00 Log CFU/mL
same,Biofilm embedded ST,Biofilm embedded ST,0.00 ± 0.00 Log CFU/ml
"PDENK [Peptide P2, PDENK]",Reduction of percent of birds positive for ST in the liver,ST,30%
same,Reduction of ST colonization in the cecum,"ST; 50 mg/kg twice daily 7 days, day 10 (7 dpi)",1.8 logs
same,MIC against ST,[1],15 mM
same,Growth of Bacteroides thetaiotaomicron,commensal bacteria,no inhibition
same,Growth of E. coli Nissle 1917 and E. coli G58-1,commensal bacteria,inhibited
same,Growth of Gram-positive commensal bacteria,commensal bacteria,No growth inhibition
same,Biofilm embedded SE,Biofilm embedded SE,0.00 ± 0.00 Log CFU/mL
same,Biofilm embedded ST,Biofilm embedded ST,0.00 ± 0.00 Log CFU/ml
